This passage reports Hemagglutination inhibition concentration results from patent publication US20220089631A1, “COMPOUND COMPRISING MULTIVALENT SIALYLOLIGO[…], AND COMPOSITION FOR PREVENTING OR TREATING VIRAL INFECTION DISEASES, CONTAINING SAME AS ACTIVE INGREDIENT” (priority 2018, published 2022).

Format in all cases: cell-based, influenza virus
For assay [1], the system named is Influenza Type A H1N1 (PR8).
Assay [2] has as its system Influenza Type A H3N2 (swine).
Assay [3] deals with Influenza Type A H9N2 (avian).
For assay [4], the system named is Influenza Type B.

Bounds are passed on as bounds.

`CC(=O)NC1C(O)CC(OCC2CC(O)C(O)C(OC3C(CO)OC(OCCCCCCNC(=O)CCC(=O)OC4OC(COC(=O)CCC(=O)NCCCCCCOC5OC(O)C(OC6OC(COC7(C(=O)O)CC(O)C(NC(C)=O)C([C@@H](O)[C@H](O)CO)O7)CC(O)C6O)C(O)C5O)C(OC(=O)CCC(=O)NCCCCCCOC5OC(CO)C(OC6OC(COC7(C(=O)O)CC(O)C(NC(C)=O)C(C(O)[C@H](O)CO)O7)CC(O)C6O)C(O)C5O)C4OC(=O)CCC(=O)NCCCCCCOC4OC(CO)C(OC5OC(COC6(C(=O)O)CC(O)C(NC(C)=O)C([C@@H](O)[C@H](O)CO)O6)C(O)C(O)C5O)C(O)C4O)C(O)C3O)O2)(C(=O)O)OC1C(O)[C@H](O)CO` (stereo partly drawn) [Compound 4]: the Hemagglutination inhibition concentration in assay [1] is reported as 0.45 mM; in assay [2], 0.85 mM; in assay [3], 2.0 mM; in assay [4], 0.15 mM.
The matching figures for `CC(=O)N[C@H]1[C@H]([C@H](O)[C@H](O)CO)O[C@@](O[C@H]2[C@@H](O)[C@@H](CO)O[C@@H](O[C@H]3[C@H](O)[C@@H](O)C(O)O[C@@H]3CO)[C@@H]2O)(C(=O)O)C[C@@H]1O` (stereo partly drawn) [compound 1, 3′-sialyl lactose]: 25 mM, 20 mM, 18 mM and 10 mM.
`CC(=O)N[C@H]1[C@H]([C@H](O)[C@H](O)CO)O[C@@](OC[C@H]2O[C@@H](O[C@H]3[C@H](O)[C@@H](O)[C@H](O)O[C@@H]3CO)[C@H](O)[C@@H](O)[C@H]2O)(C(=O)O)C[C@@H]1O` [compound 2, 6′-sialyl lactose]: the Hemagglutination inhibition concentration in assay [1] is given as 12.5 mM; in assay [2], 4.5 mM; in assay [3], over 100 mM; in assay [4], 4.5 mM.
